Patent US8597904B2, “Pharmaceutical compositions for the treatment of conditions responsive to proteasome inhibition” (priority 2007, dated 2013)
Where two headings read alike, the source gives them in different places.

Assays:
Rat-1 fibroblasts cells = experiment: sulphorhodamine B (SRB) cell viability / proliferation assay; type: cell-based
Experimental: To then test the effects of syringolin A on proliferation, cells at 0.25-0.5×10^5 cells per ml were seeded in 96-well microtiter plates containing 100 μl of culture medium per well. After 24 hours, syringolin A was added to wells to a final concentration of 0.5 μm to 100 μm. Syringolin was not added to parallel samples of control cells. Cells were incubated for 48 hours, photographed, and the viability of cells (calculated as a percentage of control cell counts) was determined using the sulphorhodamine B (SRB) assay as previously reported (Skehan, et al. 1990. J. Natl. Cancer Inst. 82:1107-1112, which is incorporated herein by reference in its entirety). In brief, cell culture medium was removed from the microtiter plate and adherent cells were fixed with 10% (w/v) trichloracetic acid (TCA) for 30 minutes at room temperature. Following four washes with tap water, 100 μl of SRB (Sigma Chemical Co., St. Louis, Mo.) (0.4 g/100 ml 1% [v/v] glacial acetic acid in water) was added and the plate was then incubated for 30 minutes at room temperature, and rinsed four times with 3% (v/v) glacial acetic acid. […] The absorption at a wavelength of 560 nm was read using an HTS 7000 Plus Bioassay Reader or a Victor 3, 1420 Multilabel Counter (PerkinElmer, Inc. Boston, Mass.). […]

[1] = biological target: T1, proteasome activity in SKOV3 ovarian cancer cells (Homo sapiens, UniProt P28074); experiment: Proteasome-Glo cell-based luminescent assay
T1 construct: in vivo proteasome activity in SK-N-SH neuroblastoma cells and SKOV3 human ovarian cancer cells; endogenous in cells; host or cells: SKOV3
T1 sequence (P28074 60-263): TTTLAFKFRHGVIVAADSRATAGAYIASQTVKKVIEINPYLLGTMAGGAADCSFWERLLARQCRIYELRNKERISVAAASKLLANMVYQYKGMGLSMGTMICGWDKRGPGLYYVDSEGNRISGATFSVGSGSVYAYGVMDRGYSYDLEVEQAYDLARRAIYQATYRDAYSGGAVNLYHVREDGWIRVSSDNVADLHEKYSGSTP
Experimental: Syringolin A was tested as a proteasome inhibitor in vivo in cultured mammalian cancer cells. Inhibition of proteasome activity in human SK-N-SH neuroblastoma cells was measured using the Proteasome-Glo™ cell-based luminescent assay (Promega) in solid white 96-well microtiter cell culture plates. Ten μl of syringolin A (at various concentrations) was added to each well containing SK-N-SH cells (plated at a concentration of 1.0×10^5 cells/ml in 90 μl well volumes 24 hours prior) and a negative control and media only control were included. Cells were incubated with 1-100 μM syringolin A for 2 hours or 24 hours, and then equilibrated to room temperature for 15 minutes before 100 μl of Proteasome-Glo reagent (containing bioluminescent substrate Suc-LLVY-aminoluciferin) was added to the cells. Luminescence (indicated as relative luminescence units [RLU]) was read after 15-30 minutes on a Dynex MLX Luminometer.
The cell culture-based proteasome inhibition assay was performed as previously described (Groll et al. 2008. Nature 452:755-758, which is incorporated herein by reference in its entirety). Briefly, wells of white-walled 96-well microtiter cell culture plates were seeded at a density of 1×10^4 cells/well (SK-N-SH) or 5×10^3 cells/well (SKOV3) in 90 μl. After 24 hours, 10 μl GlbA or SylA were added at increasing concentrations (0-100 μM) and incubated for 2 hours. […] Cell Death Differ 9:1017-1025; Meng, et al. 1999. PNAS 96:10403-10408, each of which is incorporated herein by reference in its entirety) were used as positive and negative controls, respectively. Microtiter plates were then equilibrated to room temperature for 15 min before adding 100 μl of proteasome Glo™ reagent (containing bioluminescent substrate Suc-LLVY-aminoluciferin) per well. Luminescence was measured on a Dynex MLX luminometer, according to the manufacturer's instructions (Promega).

[2] = tested on: cells colonized by powdery mildew in wheat; settings: literature (Amrein 2004; Waspi 1998-2001); cited from earlier work
SK-N-SH cells = experiment: CellTiter 96 Aqueous One (MTS) cell proliferation assay; type: cell-based, human
Experimental: (§1) The CellTiter 96 Aqueous One solution Cell Proliferation Assay (2-(4,5-dimethylthiazol-2-yl)-5-(3-carboxymethoxyphenyl)-2-(4-sulfophenyl)-2H-tetrazolium, inner salt; MTS) (Promega, San Luis Obispo, Calif.) was used to determine the viability of cells treated with GlbA and SylA. Briefly, SK-N-SH and SKOV3 cells were seeded in clear, 96 well plates, as described (Example 11), and cultured for 18-24 hours. Ten μl GlbA or SylA were added at different concentrations (0-100 μM) and incubated for 48 hours. After the experiment, 20 uL of tetrazolium CellTiter 96 Aqueous One Solution Reagent was added to wells, incubated for 75-150 min. at 37° C. The absorbance was measured at 490 nm using a Perkin Elmer HTS7000 Plus bioassay reader.

SKOV3 cells = experiment: as above; type: cell-based, human
Experimental: as §1

| Structure (SMILES) | cell morphology (Rat-1 fibroblasts cells; Rat-1, 25 μM, no detachment or floating cells) | cell proliferation rate (Rat-1 fibroblasts cells; Rat-1, dose-dependent) | IC50 [1] [nM] | proteasome activity in cells ([1]; SKOV3, 2 hours incubation, listed as SylA) | hypersensitive cell death [2] | IC50 ([1]; SKOV3, 2 hours, read-out: IC50 of proteasomal activity) [nM] | potency of GlbA relative to SylA ([1]; SKOV3, ratio of IC50) | cell morphology (SK-N-SH cells; 48 hours) | EC50 (SK-N-SH cells; Homo sapiens, 48 hours, MTS) [µM] | effectiveness of GlbA relative to SylA (SK-N-SH cells; ratio of EC50) | EC50 (SKOV3 cells; Homo sapiens, SK-OV-3, 48 hours, MTS) [µM] | cell morphology (SKOV3 cells; SKOV3, 48 hours) | effectiveness of GlbA relative to SylA (SKOV3 cells; SKOV3, ratio of EC50) [fold] |
| --- | --- | --- | --- | --- | --- | --- | --- | --- | --- | --- | --- | --- | --- |
| CC(C)[C@H](NC(=O)N[C@H](C(=O)N[C@H]1/C=C/CCNC(=O)/C=C/[C@H](C(C)C)NC1=O)C(C)C)C(=O)O [syringolin A] | affected the cell morphology | reduced the cell proliferation rate | 4030 | dose-dependent manner | induce hypersensitive death of cells colonized by powdery mildew in wheat | – | – | – | – | – | – | – | – |
| CCCCCCC/C=C/C=C/C(=O)N[C@H](C(=O)N[C@H]1C[C@@H](O)CCNC(=O)/C=C/[C@H](C)NC1=O)[C@@H](C)O [glidobactin A] | – | – | – | – | – | 250 | approximately 16 fold | severe morphological changes | ~0.14 | about 143 fold | ~0.8 | severe morphological changes | ~25 |
